Like-named read-outs stand apart in the source and are kept apart here.
Experiments:
[1] = target: His-tagged KRAS G12D protein (Homo sapiens, UniProt P01116, G12D); assay: KRAS G12D TR-FRET Assay; format: binding
Experimental: KRAS G12D TR-FRET Assay Compounds of interest were prepared in a dose-response titration in DMSO, and 80 nL were added via Labcyte Echo to each well of a 384-well plate (Perkin Elmer 6008280). The His-tagged KRAS G12D protein (Amgen) was diluted to 20 nM in Assay Buffer (20 mM HEPES, pH 7.4, 10 mM MgCl2, 50 mM NaCl, 0.1% BSA, 0.01% Tween-20, 10 μM GDP) and 2 uL was added to the appropriate wells of the 384-well plate. The plate was incubated for 30 minutes at room temperature. Biotinylated KRPep-2d substrate (Amgen) was diluted to 20 nM in Assay Buffer and 2 μL was added to all wells and incubated for 1 hour at room temperature. Detection Reagent (0.4 nM LANCE Eu-W1024 Anti-6×-His (Perkin Elmer AD0401), 5 nM streptavidin-d2 (Cisbio 610SADLA)) was prepared in Assay Buffer, then 4 μL was added to the plate and incubated for 1 hour at room temperature. Plates were read using PerkinElmer EnVision (ex: 320 nm, em1: 665 nm, em2: 615 nm) and em1/em2 data was used to generate curve fits using a 4-parameter logistic model to calculate IC50 values.

[2] = test system: Phosphorylation of ERK1/2 in AsPC-1 cells; assay: Phospho-ERK1/2 MSD Assay; format: cell-based
Experimental: AsPC-1 (ATCC® CRL-1682™) cells were cultured in RPMI 1640 Medium (ThermoFisher Scientific 11875093) containing 10% fetal bovine serum (ThermoFisher Scientific 16000044) and Ix penicillin-streptomycin-glutamine (ThermoFisher Scientific 10378016). Sixteen hours prior to compound treatment, AsPC-1 cells were seeded in 96-well cell culture plates at a density of 25,000 cells/well and incubated at 37° C., 5% CO2. A compound dose-response titration was diluted in growth media, added to appropriate wells of a cell culture plate, and then incubated at 37° C., 5% CO2 for 2 h. Following compound treatment, cells were washed with ice-cold Dulbecco's phosphate-buffered saline, no Ca^2+ or Mg^2+ (ThermoFisher Scientific 14190144), and then lysed in RIPA buffer (50 mM Tris-HCl pH 7.5, 1% Igepal, 0.5% sodium deoxycholate, 150 mM NaCl, and 0.5% sodium dodecyl sulfate) containing protease inhibitors (Roche 4693132001) and phosphatase inhibitors (Roche 4906837001). Phosphorylation of ERK1/2 in compound-treated lysates was assayed using Phospho-ERK1/2 Whole Cell Lysate kits (Meso Scale Discovery K151DWD) according to the manufacturer's protocol. Assay plates were read on a Meso Scale Discovery Sector Imager 6000, and data were analyzed using a 4-parameter logistic model to calculate IC50 values.

[3] = target: GDP-bound KRAS protein (aa 1-169), containing both G12D and C118A amino acid substitutions (Homo sapiens, UniProt P01116, C118A/G12D); assay: KRAS G12D Coupled Nucleotide Exchange Assay; format: biochemical
GDP-bound KRAS protein (aa 1-169), containing both G12D and C118A amino acid substitutions, sequence (P01116 1-169 isoform P01116-2 G12D/C118A): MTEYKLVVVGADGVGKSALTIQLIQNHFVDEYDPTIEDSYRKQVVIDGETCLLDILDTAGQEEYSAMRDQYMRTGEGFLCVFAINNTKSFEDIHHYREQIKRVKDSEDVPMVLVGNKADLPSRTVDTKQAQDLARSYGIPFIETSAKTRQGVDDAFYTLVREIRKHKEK
Experimental: KRAS G12D Coupled Nucleotide Exchange Assay
Following compound pre-incubation, purified SOS protein (aa 564-1049) and GTP (Roche 10106399001) were added to the assay wells and incubated for an additional 30 min. […] The assay plates were then read on a PerkinElmer EnVision Multilabel Reader, using AlphaScreen® technology, and data were analyzed using a 4-parameter logistic model to calculate IC50 values.

[4] = Homo sapiens, ASPC1, 2 h, read-out: 2 h p-ERK (AsPC-1 cells), IC50, AsPC-1 cells, 2 h compound treatment
[5] = read-out: 2 h p-ERK (AsPC-1 cells), IC50, AsPC-1 cells, 2 h compound treatment

His-tagged KRAS G12D protein, sequence (P01116 1-188 isoform P01116-2 G12D): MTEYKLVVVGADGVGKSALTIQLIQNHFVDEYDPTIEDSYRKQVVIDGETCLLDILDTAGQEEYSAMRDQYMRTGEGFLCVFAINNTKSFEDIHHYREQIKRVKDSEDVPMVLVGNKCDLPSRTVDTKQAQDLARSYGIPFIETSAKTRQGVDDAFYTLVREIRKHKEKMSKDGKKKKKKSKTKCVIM

Structure (SMILES)	IC50 [1] [nM]	IC50 [2, 4] [nM]	IC50 [3] [nM]	IC50 [2, 5] [nM]
CCc1c(F)ccc2cc(O)cc(-c3c(F)cc4c(N5CCC[C@@](C)(O)C5)nc(OC[C@@]56CCCN5C[C@H](F)C6)nc4c3F)c12 (atropisomer, axis not shown) [Example 3, (3R)-1-(7-(8-Ethyl-7-fluoro-3-hydroxynaphthalen-1-yl)-6,8-difluoro-2-(((2R,7a.S)-2-fluorotetrahydro-1H-pyrrolizin-7a(5H)-yl)methoxy)quinazolin-4-yl)-3-methylpiperidin-3-ol]	127		134	
C#Cc1c(F)ccc2cccc(-c3c(F)cc4c(N5CCC[C@@](C)(O)C5)nc(OC[C@@]56CCCN5C[C@H](F)C6)nc4c3F)c12 (single isomer, unassigned) [Example 66]	657		589	
C#Cc1cccc2cc(O)cc(-c3c(F)cc4c(N5CCC[C@@](C)(O)C5)nc(OC[C@@]56CCCN5C[C@H](F)C6)nc4c3F)c12 (single isomer, unassigned) [Example 11]	212		186	
CCc1c(F)ccc2cc(O)cc(-c3c(F)cc4c(N5CCCC6(CNC(=O)O6)C5)nc(OC[C@@]56CCCN5C[C@H](F)C6)nc4c3F)c12 (single isomer, unassigned) [Example 57]	437		87	
CCc1c(F)ccc2cc(O)cc(-c3c(F)cc4c(N5CCOCC(C)(O)C5)nc(OC[C@@]56CCCN5C[C@H](F)C6)nc4c3F)c12 (single isomer, unassigned) [Example 35]	122		43	
CCc1c(F)ccc2cc(O)cc(-c3c(F)cc4c(N5CCCC(O)(C(F)F)C5)nc(OC[C@@]56CCCN5C[C@H](F)C6)nc4c3F)c12 (single isomer, unassigned) [Example 22]	96		58	
CCc1c(F)ccc2cc(N)cc(-c3c(F)cc4c(N5CCC[C@@](C)(O)C5)nc(OC[C@@]56CCCN5C[C@H](F)C6)nc4c3F)c12 (single isomer, unassigned) [Example 61]	729		272	
CCc1c(F)ccc2cc(O)cc(-c3c(F)cc4c(N5CCCC(O)(C(F)F)C5)nc(OC[C@@]56CCCN5C[C@H](F)C6)nc4c3F)c12 (single isomer, unassigned) [Example 21]	40		40	
C#Cc1c(F)ccc2cc(N)cc(-c3c(F)cc4c(N5CCC[C@@](C)(O)C5)nc(OC[C@@]56CCCN5C[C@H](F)C6)nc4c3F)c12 (single isomer, unassigned) [Example 63]	223		138	
CCc1c(F)ccc2cc(O)cc(-c3c(O)cc4c(N5CCC[C@@](C)(O)C5)nc(OC[C@@]56CCCN5C[C@H](F)C6)nc4c3F)c12 (single isomer, unassigned) [Example 28]	273		302	
C#Cc1c(F)ccc2cc(N)cc(-c3c(F)cc4c(N5CCC[C@@](C)(O)C5)nc(OC[C@@]56CCCN5C[C@H](F)C6)nc4c3F)c12 (single isomer, unassigned) [Example 64]		74		
CCc1c(F)ccc2cc(O)cc(-c3ccc4c(N5CCCC(O)(C(F)F)C5)nc(OC[C@@]56CCCN5C[C@H](F)C6)nc4c3F)c12 (single isomer, unassigned) [Example 24]	70		80	

More lines, in order of falling IC50 [1], values ahead:

IC50 [1] [nM]	IC50 [2, 4] [nM]	IC50 [3] [nM]	IC50 [2, 5] [nM]	Structure (SMILES)
24		8	507	CCc1c(F)ccc2cc(O)cc(-c3c(F)cc4c(N5CCCC6(CNC(=O)O6)C5)nc(OC[C@@]56CCCN5C[C@H](F)C6)nc4c3F)c12 (single isomer, unassigned) [Example 56]
22		23		Cc1cc2[nH]ncc2c(-c2c(F)cc3c(N4CCC[C@@](C)(O)C4)nc(OC[C@@]45CCCN4C[C@H](F)C5)nc3c2F)c1Cl [Example 48, (3R)-1-(7-(5-Chloro-6-methyl-1H-indazol-4-yl)-6,8-difluoro-2-(((2R,7a.S)-2-fluorotetrahydro-1H-pyrrolizin-7a(5H)-yl)methoxy)quinazolin-4-y1)-3-methylpiperidin-3-ol]
22		11		CCc1c(F)ccc2cc(O)cc(-c3ccc4c(N5CCC(C(N)=O)C5)nc(OC[C@@]56CCCN5C[C@H](F)C6)nc4c3F)c12 (stereo partly drawn) [Example 8, 1-(7-(8-Ethyl-7-fluoro-3-hydroxynaphthalen-1-yl)-8-fluoro-2-(((2R,7aS)-2-fluorotetrahydro-1H-pyrrolizin-7a(5H)-yl)methoxy)quinaquinazolin-4-yl)pyrrolidine-3-carboxamide]
10		10		Cc1c(Cl)cc2[nH]ncc2c1-c1c(F)cc2c(N3CCC[C@@](C)(O)C3)nc(OC[C@@]34CCCN3C[C@H](F)C4)nc2c1F [Example 49, (3R)-1-(7-(6-Chloro-5-methyl-1H-indazol-4-yl)-6,8-difluoro-2-(((2R,7aS)-2-fluorotetrahydro-1H-pyrrolizin-7a(5H)-yl)methoxy)quinazolin-4-yl)-3-methylpiperidin-3-ol]
6	29	4		CCc1cccc2cc(O)cc(-c3c(F)cc4c(N5CCC[C@]6(CCO6)C5)nc(OC[C@@]56CCCN5C[C@H](F)C6)nc4c3F)c12 [Example 77, 4-(6,8-Difluoro-2-(((2R,7aS)-2-fluorotetrahydro-1H-pyrrolizin-7a(5H)-yl)methoxy)-4-((S)-1-oxa-6-azaspiro[3.5]nonan-6-yl)quinazolin-7-yl)-5-ethylnaphthalen-2-ol]
5	126	4		Cc1cc2[nH]ncc2c(-c2ccc3c(N4CCC[C@](O)(CF)C4)nc(OC[C@@]45CCCN4C[C@H](F)C5)nc3c2F)c1[C@H]1C[C@H]1C (atropisomer, axis not shown; (aS)) [Example 118, (R)-1-((S)-8-Fluoro-2-(((2R,7aS)-2-fluorotetrahydro-1H-pyrrolizin-7a(5H)-yl)methoxy)-7-(6-methyl-5-((1S,2R)-2-methylcyclopropyl)-1H-indazol-4-yl)quinazolin-4-yl)-3-(fluoromethyl)piperidin-3-ol]
5	39	3		C/C=C\c1c(Cl)cc2[nH]ncc2c1-c1c(F)cc2c(N3CCC[C@](O)(CF)C3)nc(OC[C@@]34CCCN3C[C@H](F)C4)nc2c1F (single isomer, unassigned) [Example 101]
5	16	3		Oc1cc(-c2c(F)cc3c(N4CCC[C@]5(CCO5)C4)nc(OC[C@@]45CCCN4C[C@H](F)C5)nc3c2F)c2c(Cl)c(F)ccc2c1 [Example 78, 5-Chloro-4-(6,8-difluoro-2-(((2R,7aS)-2-fluorotetrahydro-1H-pyrrolizin-7a(5H)-yl)methoxy)-4-((S)-1-oxa-6-azaspiro[3.5]nonan-6-yl)quinazolin-7-yl)-6-fluoronaphthalen-2-ol]
4	100	4		C/C=C\c1c(Cl)cc2[nH]ncc2c1-c1ccc2c(N3CCC[C@](O)(CF)C3)nc(OC[C@@]34CCCN3C[C@H](F)C4)nc2c1F (single isomer, unassigned) [Example 109]
1			3	CCc1c(F)ccc2cc(O)cc(-c3c(F)cc4c(N5CCCC6(CNC(=O)O6)C5)nc(OC[C@@]56CCCN5C[C@H](F)C6)nc4c3F)c12 (single isomer, unassigned) [Example 58]

From patent US20250179077A1, “QUINAZOLINE COMPOUNDS AND USES THEREOF AS INHIBITORS OF MUTANT KRAS PROTEINS” (AMGEN INC., priority 2022, published 2025)
